Experimental data from PMC8694024 (RSC Advances, 2021).
Read-outs that look alike come from different tables or passages of the source.

Legend:
[1] = target: T1, β-glucosidase from Aspergillus niger (Aspergillus niger, UniProt A2RAL4); test: Inhibition of β-glucosidase from Aspergillus niger, β-p-NPG substrate; assay type: biochemical; conditions: read-out: Apparent IC50, A. niger β-glucosidase; pH 4.6, β-p-NPG substrate
T1 sequence (A2RAL4 20-860): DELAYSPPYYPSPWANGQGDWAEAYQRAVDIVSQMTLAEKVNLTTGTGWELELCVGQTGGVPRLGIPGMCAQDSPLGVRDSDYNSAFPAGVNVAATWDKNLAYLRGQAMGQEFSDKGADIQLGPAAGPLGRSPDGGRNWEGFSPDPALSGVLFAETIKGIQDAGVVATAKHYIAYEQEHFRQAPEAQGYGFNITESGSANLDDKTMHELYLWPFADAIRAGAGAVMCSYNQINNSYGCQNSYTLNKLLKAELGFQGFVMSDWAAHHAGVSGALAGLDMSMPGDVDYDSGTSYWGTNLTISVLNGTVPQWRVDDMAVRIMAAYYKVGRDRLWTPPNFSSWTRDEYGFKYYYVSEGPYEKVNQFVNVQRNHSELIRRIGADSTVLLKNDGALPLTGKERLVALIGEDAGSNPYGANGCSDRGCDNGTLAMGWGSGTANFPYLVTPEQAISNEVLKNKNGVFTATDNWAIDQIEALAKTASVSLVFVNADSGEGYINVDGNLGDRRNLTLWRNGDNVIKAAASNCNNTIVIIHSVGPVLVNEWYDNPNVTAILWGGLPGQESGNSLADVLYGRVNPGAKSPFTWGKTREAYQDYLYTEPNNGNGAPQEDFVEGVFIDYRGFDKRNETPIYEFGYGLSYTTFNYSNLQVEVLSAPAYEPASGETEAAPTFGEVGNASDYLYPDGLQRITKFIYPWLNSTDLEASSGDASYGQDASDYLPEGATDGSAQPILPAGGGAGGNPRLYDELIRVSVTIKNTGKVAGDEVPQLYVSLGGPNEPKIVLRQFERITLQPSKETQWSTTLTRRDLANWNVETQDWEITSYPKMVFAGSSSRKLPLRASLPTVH

rat intestinal maltase [2] = test: Inhibitory effects on rat intestinal α-glucosidases: maltase; assay type: biochemical; conditions: read-out: Apparent IC50, Maltase; rat intestinal disaccharidases
[3] = target: T2, rat intestinal isomaltase (Rattus norvegicus, UniProt P23739); test: Inhibitory effects on rat intestinal α-glucosidases: isomaltase; assay type: biochemical
T2 sequence (P23739 whole entry): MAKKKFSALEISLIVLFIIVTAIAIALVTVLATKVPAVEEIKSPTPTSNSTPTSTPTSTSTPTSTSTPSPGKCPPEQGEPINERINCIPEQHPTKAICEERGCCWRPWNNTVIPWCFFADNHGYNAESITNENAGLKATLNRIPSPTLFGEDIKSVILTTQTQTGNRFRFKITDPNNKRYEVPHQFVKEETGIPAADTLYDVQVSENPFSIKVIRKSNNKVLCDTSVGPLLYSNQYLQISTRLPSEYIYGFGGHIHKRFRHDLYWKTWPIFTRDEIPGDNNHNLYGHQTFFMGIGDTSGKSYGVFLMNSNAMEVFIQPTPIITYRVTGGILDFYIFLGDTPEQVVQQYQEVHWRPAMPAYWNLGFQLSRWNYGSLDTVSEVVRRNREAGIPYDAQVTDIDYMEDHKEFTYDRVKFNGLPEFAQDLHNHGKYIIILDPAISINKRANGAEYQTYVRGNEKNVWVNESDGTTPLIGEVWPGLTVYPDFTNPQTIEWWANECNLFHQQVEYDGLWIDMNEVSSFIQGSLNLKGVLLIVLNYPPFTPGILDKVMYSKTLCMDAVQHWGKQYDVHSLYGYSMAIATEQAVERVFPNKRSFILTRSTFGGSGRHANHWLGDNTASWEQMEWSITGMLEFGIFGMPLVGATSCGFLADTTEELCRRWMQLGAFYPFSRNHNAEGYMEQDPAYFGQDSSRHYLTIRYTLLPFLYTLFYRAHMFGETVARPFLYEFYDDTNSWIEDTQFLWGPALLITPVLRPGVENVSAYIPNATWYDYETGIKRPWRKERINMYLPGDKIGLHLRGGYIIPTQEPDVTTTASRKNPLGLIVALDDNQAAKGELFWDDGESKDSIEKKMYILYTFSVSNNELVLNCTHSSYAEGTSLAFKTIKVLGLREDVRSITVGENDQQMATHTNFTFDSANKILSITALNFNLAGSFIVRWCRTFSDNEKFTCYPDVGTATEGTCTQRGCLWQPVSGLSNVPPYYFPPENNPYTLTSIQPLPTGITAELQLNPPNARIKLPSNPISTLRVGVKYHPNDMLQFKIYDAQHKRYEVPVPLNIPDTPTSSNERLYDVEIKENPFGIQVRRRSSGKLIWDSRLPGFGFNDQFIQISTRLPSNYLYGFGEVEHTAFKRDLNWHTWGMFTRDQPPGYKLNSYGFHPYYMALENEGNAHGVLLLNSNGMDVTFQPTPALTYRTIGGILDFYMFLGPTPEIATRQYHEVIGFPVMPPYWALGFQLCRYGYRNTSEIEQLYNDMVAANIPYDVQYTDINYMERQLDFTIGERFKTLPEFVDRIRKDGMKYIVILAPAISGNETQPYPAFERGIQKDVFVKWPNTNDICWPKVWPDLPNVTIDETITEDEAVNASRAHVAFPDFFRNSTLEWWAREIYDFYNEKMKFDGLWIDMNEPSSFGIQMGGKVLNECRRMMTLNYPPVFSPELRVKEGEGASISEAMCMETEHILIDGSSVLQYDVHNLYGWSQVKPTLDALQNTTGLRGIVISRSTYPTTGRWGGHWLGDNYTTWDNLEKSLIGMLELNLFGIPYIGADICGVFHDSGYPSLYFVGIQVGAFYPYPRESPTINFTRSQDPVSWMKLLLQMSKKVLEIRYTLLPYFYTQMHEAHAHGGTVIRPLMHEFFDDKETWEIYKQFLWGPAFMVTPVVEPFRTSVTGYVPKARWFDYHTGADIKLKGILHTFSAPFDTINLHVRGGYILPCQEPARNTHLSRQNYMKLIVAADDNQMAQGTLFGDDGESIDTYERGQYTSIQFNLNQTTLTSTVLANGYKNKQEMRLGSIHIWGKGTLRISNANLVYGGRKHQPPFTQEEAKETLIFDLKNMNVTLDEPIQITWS

rat intestinal sucrase = rat intestinal sucrase (Rattus norvegicus, UniProt P23739); test: Inhibitory effects on rat intestinal α-glucosidases: sucrase; assay type: biochemical
Chain of rat intestinal sucrase (P23739 whole entry): as above

rat intestinal maltase [4] = conditions: read-out: Apparent IC50, Maltase; rat intestinal disaccharidases; cited from earlier work
[5] = test system: intestinal α-glucosidases; conditions: cited from earlier work
[6] = target: T2, rat intestinal isomaltase; conditions: read-out: Apparent IC50, Isomaltase; rat intestinal disaccharidases; cited from earlier work
[7] = target: recombinant human α-glucosidase GAA (Homo sapiens, UniProt P10253); test: Inhibition of recombinant human α-glucosidase GAA; assay type: biochemical
[8] = read-out: Apparent IC50, Isomaltase, rat intestinal disaccharidases
[9] = read-out: Apparent IC50, Sucrase, rat intestinal disaccharidases

Row | Molecule | IC50 [1] | IC50 (rat intestinal maltase [2]) | IC50 [3, 8] | IC50 (rat intestinal sucrase; [9]) | other results
1 | 2', 3'-epi-Salacinol [Compound 12] | > 1000 µM | > 100 µM | > 100 µM | > 100 µM | –
2 | 2'-epi-Neosalacinol [Compound 11] | > 1000 µM | > 100 µM | > 100 µM | – | –
3 | 3'-epi-Neosalacinol [Compound 9] | > 1000 µM | 4.3 µM | 0.58 µM | 0.69 µM | –
4 | O=S(=O)([O-])O[C@@H](CO)[C@H](O)C[S@+]1C[C@@H](O)[C@H](O)[C@H]1CO [Compound 1, Salacinol] | – | – | – | – | IC50 (rat intestinal maltase [4]): 5.2 µM; type of inhibition (Lineweaver–Burk plots) [5]: competitive type of inhibition; IC50 [6]: 5.2 µM
5 | OCC(CO)N[C@H]1C[C@](O)(CO)[C@@H](O)[C@H](O)[C@H]1O [Voglibose] | – | – | – | – | Ki [7]: 7.6 ± 0.8 µM

Further lines, with some results ahead:

Row | IC50 [1] | IC50 (rat intestinal maltase [2]) | IC50 [3, 8] | IC50 (rat intestinal sucrase; [9]) | Molecule | other results
6 | > 1000 µM | > 100 µM | 34 µM | – | 2', 3'-epi-Neosalacinol [Compound 13] | –
7 | > 1000 µM | > 100 µM | > 100 µM | > 100 µM | 2'-epi-Salacinol [Compound 10] | –
8 | > 1000 µM | > 100 µM | 6.4 µM | 19 µM | 3'-epi-Salacinol [Compound 8] | –
9 | – | 25 µM | – | – | [O-][C@@H](CO)[C@H](O)C[S@+]1C[C@@H](O)[C@H](O)[C@H]1CO [Compound 2, neosalacinol, reference compound] | IC50 (rat intestinal sucrase): 3.6 µM; IC50 [3]: 0.45 µM; Ki [7]: 3.6 ± 0.3 µM
